Measured values published in US20240139178A1, “METHOD FOR MANUFACTURING COMPOSITION FOR COMPOSITION FOR INCREASING COGNITIVE FUNCTION” (priority 2018, published 2024).

Experiments:
Aβ1-42 [1] = biological target: T1, Aβ1-42 (Homo sapiens, UniProt P05067); assay: Aβ disaggregation test of rifamycin-based derivatives by Thioflavin T analysis; type: biochemical; details: 50 μM compound, 50 μM Aβ1-42 aggregated 3 days, then 2 days of reaction
T1 construct: human A81-42 monomers (UniProtKB-P05067, a.a. 672-713)
T1 sequence (P05067 672-713): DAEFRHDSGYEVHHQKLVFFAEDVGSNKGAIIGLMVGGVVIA
Method: (§1) The compound was then used diluted with 6% DMSO (in DW).
(§2) The Aβ solution was prepared by dissolving Aβ 1-42 monomers to the concentration of 10 mM in DMSO. Thereafter, the mixture was diluted to 100 μM by using DW and stored on ice.
(§3) On the other hand, Thioflavin-T was dissolved to the concentration of 5 mM in 50 mM glycine buffer (pH 8.5). Then, the resultant solution was diluted to the concentration of 50 μM by using 50 mM glycine buffer (pH 8.5) and stored in the dark while light was blocked.
The Aβ solution prepared in Example 3.1. was placed in 1.5 mL microcentrifuge tubes, each having 50 μM of the Aβ solution, and then reacted at 37° C. for 72 hours.
Each 1.5 mL microcentrifuge tube was treated with 50 μM rifapentine-based derivatives, followed by reaction at 37° C. for 48 hours.
(§4) 25 μL of the reaction solution in which the reaction was completed was added to each well of a 96-well fluorescence assay plate, and 75 μL of the Thioflavin-T solution prepared above was added to each well. After reacting for 5 minutes in the dark at room temperature, fluorescence values were measured at excitation 450 nm and emission 485 nm by using a multi-mode microplate reader.
The fluorescence value of the group (control) treated with Aβ alone and aggregated for 72 hours by treating only Aβ was considered as 100%, and the measured fluorescence values were expressed as a relative value thereto, and results thereof are shown in FIG. 7.

Aβ1-42 [2] = biological target: T1, Aβ1-42; assay: Aβ disaggregation test by Thioflavin T analysis; type: biochemical; details: for amyloid disaggregation effect: Aβ1-42 25 μM; for degree of Aβ aggregation compared to the control: Aβ1-42 25 μM pre-aggregated 72 hours, then 72 hours
Method: as §1
Triflupromazine hydrochloride was dissolved to the concentration of 5 mM in DMSO. The compound was then used diluted with 6% DMSO (in DW).
as §2, §3
The Aβ solution prepared in Example 2.1. was placed in 1.5 mL microcentrifuge tubes, each having 25 μM of the Aβ solution, and then reacted at 37° C. for 72 hours.
as §4
The fluorescence value of the group (control) treated with Aβ alone and aggregated for 72 hours was considered as 100%, and the measured fluorescence values were expressed as a relative value thereto, and results thereof are shown in FIG. 3 and FIG. 4.

APP/PS1 TG mice = assay: Y-maze test; type: in vivo; details: 8th week after oral administration; compared to TG-Veh and WT-Veh
Excerpt: (§5) Transgenic mice (APP/PS1 TG; Alzheimer' disease animal model; B6C3-Tg(APPswe, PSEN1dE)85Dbo/Mmjax) and wild type mice were derived from Jackson Laboratory (Bar Harbor, Maine, USA). APP/PS1 TG mice crossed with wild-type mice and maintained as double hemizygotes. All genotypes were confirmed by PCR analysis using tail DNA according to the standard PCR conditions of the Jackson Laboratory. Each mouse was housed in a plastic cage in the animal cage and the temperature of the plastic cage was maintained at 21±1° C. in alternating 12 hour light cycle, and the mice were freely fed with food and water.
The control group received the same amount of vehicle (0.5% MC in DW).
Y-maze test was performed using a maze structure made by placing the same three arms 40 cm in length (15 cm in height of the wall) at an angle of 120 degrees. […] The search time was 8 minutes per subject, and the final result was expressed as a spontaneous alteration (%) value. Spontaneous alteration (%) value was calculated by the following formula. […]
Behavioral patterns were analyzed using SMART VIDEO TRACKING Software (Panlab, USA). All data obtained in the experiments were expressed as mean±standard error mean (SEM), and the drug-applied group was compared with the non-drug group, which was a control, by using student's t-test.

Aβ42 = biological target: T2, Aβ42 (Homo sapiens, UniProt P05067); assay: Aβ disaggregation test by SDS-PAGE analysis (PICUP); type: biochemical; details: 25 μM Aβ aggregated 3 days, 50 μM or 500 μM compound, further 3 days
T2 construct: human A81-42 monomers (UniProtKB-P05067, a.a. 672-713)
T2 sequence (P05067 672-713): as above
Method: In order to confirm Aβ disaggregation in the sample prepared in Example 2.1, SDS-PAGE analysis was performed as follows.
In detail, the stock of ammonium persulfate (APS; 200 mM)and tris (2,2′-bipyridyl)dichlororuthenium (II) hexahydrate (Ru; 10 mM) was prepared in an amber tube (Axygen, MCT-150-X) by using a photo-induced cross-linking of unmodified proteins (PICUP) buffer (0.1 M sodium phosphate (pH 7.4)). The stock was diluted 10-fold in PICUP buffer (APS: 20 mM/Ru: 1 mM). 10 μL of each sample prepared in Example 2.1 was dispensed at the bottom of a 0.5 mL tube (Axygen, PCR-05-C). 1 μL of APS (20 mM) was dispensed on the tube wall and 1 μL of Ru (1 mM) on the tube cap. At this time, in order to prevent the reaction from proceeding, the sample was not mixed with APS and Ru. After closing the tube cap and spin down using a centrifuge, the tube was removed from the centrifuge and exposed to light 3 times per second using an incandescent lamp. 3 μL of 5× reducing sample buffer (w/5% β-mercaptoethanol) was added to each tube. Samples were heated at 95-100° C. for 5 minutes and then cooled on ice.
Then, the PICUP-treated samples were loaded on 4-20% (w/v) tris/glycine gel and electrophoresed at 100V for 1 hour and 30 minutes. After electrophoresis, the gel was separated and confirmed by silver staining.

Aβ1-42 [3] = biological target: T1, Aβ1-42; assay: Aβ aggregation inhibition test (Thioflavin T analysis); type: biochemical; details: for Aβ aggregation degree compared to the control / amyloid aggregation inhibition effect compared to the control: 2 μM compound, Aβ1-42 50 μM; for Aβ aggregation degree compared to the control: 37° C. 72 hours, control = 100%; for amyloid aggregation inhibition effect compared to the control: 72 hours; for Aggregation (%): 20 μM compound, 50 μM Aβ, 3 days, relative to control (100%)
Method: Then, the compound was used diluted by using 6% DMSO (in DW) and used.
Triflupromazine hydrochloride (triflupromazine used in all the examples below is triflupromazine hydrochloride) was dissolved to a concentration of 5 mM in DMSO. The compound was then used diluted with 6% DMSO (in DW).
The Aβ solution was prepared by dissolving human A81-42 monomers (UniProtKB-P05067, a.a. 672-713) to 10 mM concentration in DMSO. Thereafter, the mixture was diluted to 100 uM by using DW and stored on ice.
On the other hand, Thioflavin-T (Sigma-Aldrich) was dissolved to the concentration of 5 mM in 50 mM glycine buffer (pH 8.5). Then, the resultant solution was diluted to the concentration of 50 μM by using 50 mM glycine buffer (pH 8.5) and stored in the dark while light was blocked.
as §4
The fluorescence value of the group (control) treated with Aβ alone and aggregated for 72 hours was considered as 100%, and the measured fluorescence values were expressed as a relative value thereto, and results thereof are shown in FIG. 1 and FIG. 2.
In addition, by performing the same test as described above for 20 μM of various compounds using 50 μM Aβ, the degree of Aβ aggregation was measured, and the result is expressed as a relative value for control (100%).

5× FAD mice = assay: Amyloid plaque reduction by oral triflupromazine, Thioflavin S staining; type: in vivo; details: oral 50 mg/kg once every two days for 3 weeks; vs vehicle control mice
Excerpt: as §5, with “(5×FAD; Alzheimer's” for “(APP/PS1 TG; Alzheimer'”, “B6SJL-Tg (APPSwFILon, PSEN1*M146L*L286V)6799Vas/Mmjax))” for “B6C3-Tg(APPswe, PSEN1dE)85Dbo/Mmjax)”, “wild-type” for “wild type”, “obtained” for “derived”, “5× FAD” for “APP/PS1 TG”, “Four to six mice were” for “Each mouse was”
(§6) Seven-month old 5× FAD mice were orally treated with 50 mg/kg of triflupromazine once every two days for 3 weeks. The control received the same amount of vehicle (1% (w/v) DMSO in PBS).
Mice were anesthetized using 2%(w/v) avertin (20 mg/g, i.p.). The mice were perfused with 0.9%(w/v) NaCl and brains thereof were excised. […] The lysate concentration was measured using the BCA protein assay kit (thermoFisher, cat #232250) according to the manufacturer's instructions. The absorbance was read at 560 nm.
To stain frozen brain with thioflavin S (ThS), the brain was cut to 35 um thickness to create tissue sections using cryostat (Leica CM1800) and then Aβ plaques were stained. […] Images were obtained using a Leica DM2500 fluorescence microscope.

[4] = system: Total Tau (T-Tau) and phosphorylated Tau (P-Tau); assay: Western blot of total and phosphorylated Tau in brain tissue after oral triflupromazine; type: in vivo, mice
Excerpt: as §5, with “(5×FAD; Alzheimer's” for “(APP/PS1 TG; Alzheimer'”, “B6SJL-Tg (APPSwFILon, PSEN1*M146L*L286V)6799Vas/Mmjax))” for “B6C3-Tg(APPswe, PSEN1dE)85Dbo/Mmjax)”, “wild-type” for “wild type”, “obtained” for “derived”, “5× FAD” for “APP/PS1 TG”, “Four to six mice were” for “Each mouse was”
as §6
Mice were anesthetized using 2%(w/v) avertin (20 mg/g, i.p.). The mice were perfused with 0.9%(w/v) NaCl and brains thereof were excised. The hemibrains were fixed overnight at 4° C. in 4° /0(w/v) paraformaldehyde (pH 7.4). For cryopreservation, brains were soaked in 30%(w/v) sucrose for 48 hours. The other hemibrains were dissected into cortical and hippocampal regions and homogenized on ice for 30 minutes in lysis buffer (10 mM Tris-HCl, 5 mM EDTA in 320 mM sucrose, pH 7.4) containing 1× protease inhibitor cocktail. The sample was centrifuged at 13500 rpm for 30 minutes at 4° C. The lysate concentration was measured using the BCA protein assay kit (thermoFisher, cat #232250) according to the manufacturer's instructions. The absorbance was read at 560 nm.
Changes in Tau, a major cause of Alzheimer's dementia and Parkinson's disease, together with Aβ plaques, were confirmed by Western blot analysis. Samples of the prepared tissues were separated by SDS-PAGE and transferred to PVDF membrane. The membrane was treated overnight at 4° C. using the primary antibody. As the primary antibody, antibodies capable of detecting Total Tau (T-Tau) and phosphorylated Tau (P-Tau) were used, and detection was performed using a secondary antibody conjugated with horseradical peroxidase (HRP). The blot development was performed with a Clarity Western ECL substrate (Bio-Rad) according to the manufacturer's instructions.
On the other hand, in wild type mice (Wt), a decrease in total Tau (T-Tau) and phosphorylated Tau (P-Tau) was not observed.

[5] = 5× FAD (Tg) mice, cortex and hippocampus tissue, oral 50 mg/kg once every two days for 3 weeks, vs Tg veh

Structure (SMILES)	Aβ disaggregation effect compared to the control (Aβ1-42 [1])	degree of Aβ aggregation compared to the control (Aβ1-42 [1])	amyloid disaggregation effect (Aβ1-42 [2]; 50 μM compound)	degree of Aβ aggregation compared to the control (Aβ1-42 [2]; 50 μM compound)	amyloid disaggregation effect (Aβ1-42 [2]; 500 μM compound)	degree of Aβ aggregation compared to the control (Aβ1-42 [2]; 500 μM compound)	spontaneous alteration (%) (APP/PS1 TG mice)	Aβ disaggregation (bands of aggregated Aβ fibrils and dimers) (Aβ42)	Aβ aggregation degree compared to the control (Aβ1-42 [3])	amyloid aggregation inhibition effect compared to the control (Aβ1-42 [3])	Aggregation (%) (Aβ1-42 [3])	number of plaques (5× FAD mice)	total areas of plaques (5× FAD mice)	P-Tau (phosphorylated Tau) [4, 5]	T-Tau (Total Tau) [4, 5]	decrease in phosphorylated Tau (P-Tau) ([4]; wild type mice (Wt))	decrease in total Tau (T-Tau) ([4]; wild type mice (Wt))
CO[C@H]1/C=C/O[C@@]2(C)Oc3c(C)c(O)c4c(O)c(c(/C=N/N5CCN(C6CCCC6)CC5)c(O)c4c3C2=O)NC(=O)/C(C)=C\C=C\[C@H](C)[C@H](O)[C@@H](C)[C@@H](O)[C@@H](C)[C@H](OC(C)=O)[C@@H]1C [rifapentine, 3-[[(4-cyclopentyl-1-piperazinyl)imino]methyl]-rifamycin]	≥ 90%	≤ 10%	≥ 90%	≤ 10%	≥ 99%	≤ 1%	increased closer to the positive control group (WT-Veh)	concentration-dependent Aβ disaggregation activity	≤ 40%	≥ 60%	13.35%						
CN(C)CCCN1c2ccccc2Sc2ccc(C(F)(F)F)cc21 [triflupromazine, dimethyl ({3-[2-(trifluoromethyl)-10H-phenothiazin-10-yl]propyl})amine]			≥ 35%	≤ 65%	≥ 75%	≤ 25%		concentration-dependent Aβ disaggregation activity	≤ 70%	≥ 30%	49.84%	reduced	reduced	decreased	decreased	not observed	not observed
